Experiments:
[1] = tested on: CDK8 (phosphorylation of STAT1 at serine 727 in A549 cells); assay: Cell based Phospho-STAT1 assay (IFNγ-stimulated A549 cells, AlphaLISA); settings: Homo sapiens, A549, A549 cells, phospho-STAT1 after IFNγ stimulation
Method in brief: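 A549 cells given serial compound dilutions for 1 h at 37 °C, then stimulated with IFNγ at 10 ng/mL final for 30 min. Lysate STAT1 Ser727 phosphorylation measured by AlphaLISA; % inhibition vs stimulated/unstimulated DMSO controls, IC50 by nonlinear regression.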

[2] = tested on: CDK8 (TCF/LEF luciferase reporter in HCT116 cells); assay: Cell based TCF/LEF reporter assay (HCT116+TCF/LEF luciferase); settings: Homo sapiens, HCT-116, 24 h
Method in brief: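 Luciferase readout was corrected for viability (CellTiter-Fluor) and scaled between DMSO high and 10 uM CCT251545 low controls, giving IC50 by nonlinear regression. Compounds, serially diluted, were incubated 24 h at 37 °C on HCT116 clones stably expressing a TCF/LEF-driven luciferase reporter.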

IC50 [1] [nM]	IC50 [2] [nM]	Structure (SMILES)
0.1 to 100	100 to 1000	N#CC1CC=C(c2nccn3ncc(-c4ccc(OCCCN5CCCCC5)cc4)c23)CC1 (centres unmarked) [Compound P-0086, 4-(3-(4-(3-(piperidin-1-yl)propoxy)phenyl)pyrazolo[1,5-a]pyrazin-4-yl)cyclohex-3-ene-1-carbonitrile]
100 to 1000	100 to 1000	CC(C)(O)C#Cc1cccn2ncc(-c3cnn(-c4ccc(F)cc4)c3)c12 [Compound P-0283, 4-(3-(1-(4-fluorophenyl)-1H-pyrazol-4-yl)pyrazolo[1,5-a]pyridin-4-yl)-2-methylbut-3-yn-2-ol]
0.1 to 100	0.1 to 100	Cc1ccn2ncc(-c3ccc(-c4cnn(C)c4)cc3)c2c1C1=CCC(C#N)CC1 (centres unmarked) [Compound P-0250, 4-[5-methyl-3-[4-(1-methylpyrazol-4-yl)phenyl]pyrazolo[1,5-a]pyridin-4-yl]cyclohex-3-ene-1-carbonitrile]
0.1 to 100	0.1 to 100	CS(=O)(=O)CCn1cc(-c2ccc(-c3cnn4ccnc(C5=CCC(C#N)CC5)c34)cc2)cn1 (centres unmarked) [Compound P-0033, 4-(3-(4-(1-(2-(methylsulfonyl)ethyl)-1H-pyrazol-4-yl)phenyl)pyrazolo[1,5-a]pyrazin-4-yl)cyclohex-3-ene-1-carbonitrile]
1000 to 10000	1000 to 10000	N#CC1CCN(c2cccn3ncc(-c4ccc(OC5CCCCC5)cc4)c23)CC1 [Compound P-0265, 1-(3-(4-(cyclo-hexyloxy)phenyl)pyrazolo[1,5-a]pyridin-4-yl)piperidine-4-carbonitrile]
0.1 to 100	0.1 to 100	Cc1noc(-c2ccc(-c3cnn4cccc(N5CCC(C#N)CC5)c34)cc2)n1 [Compound P-0366, 1-(3-(4-(3-methyl-1,2,4-oxadiazol-5-yl)phenyl)pyrazolo[1,5-a]pyridin-4-yl)piperidine-4-carbonitrile]
0.1 to 100	0.1 to 100	N#CC1CCC(c2cccn3ncc(-c4ccc(F)cc4)c23)CC1 (centres unmarked) [Compound P-0139, 4-(3-(4-fluorophenyl)pyrazolo[1,5-a]pyridin-4-yl)cyclohexane-1-carbonitrile]
0.1 to 100	0.1 to 100	N#CCCn1cc(-c2ccc(-c3cnn4ccnc(C5=CCC(C#N)CC5)c34)cc2)cn1 (centres unmarked) [Compound P-0100, 4-(3-(4-(1-(2-cyanoethyl)-1H-pyrazol-4-yl)phenyl)pyrazolo[1,5-a]pyrazin-4-yl)cyclohex-3-ene-1-carbonitrile]
100 to 1000	100 to 1000	Cn1cc(-c2ccc(-c3cnn4cccc(C5=CCC(C(=O)N6CCC6)CC5)c34)cc2)cn1 (centres unmarked) [Compound P-0333, azetidin-1-yl-[4-[3-[4-(1-methylpyrazol-4-yl)phenyl]pyrazolo[1,5-a]pyridin-4-yl]cyclohex-3-en-1-yl]methanone]
0.1 to 100	0.1 to 100	Cn1cc(-c2ccc(-c3cnn4cccc(C#CC(C)(C)C#N)c34)cc2)cn1 [Compound P-0273, 2,2-dimethyl-4-(3-(4-(1-methyl-1H-pyrazol-4-yl)phenyl)pyrazolo[1,5-a]pyridin-4-yl)but-3-ynenitrile]
0.1 to 100	0.1 to 100	Cc1ccc2cc(-c3cnc4[nH]ccc4c3N3CCC(C#N)CC3)ccc2n1 [Compound P-0209, 1-(5-(2-methylquinolin-6-yl)-1H-pyrrolo[2,3-b]pyridin-4-yl)piperidine-4-carbonitrile]
0.1 to 100	0.1 to 100	N#CC1CC=C(c2cccn3ncc(-c4ccc(-n5ccnn5)cc4)c23)CC1 (centres unmarked) [Compound P-0224, 4-(3-(4-(1H-1,2,3-triazol-1-yl)phenyl)pyrazolo[1,5-a]pyridin-4-yl)cyclohex-3-ene-1-carbonitrile]
100 to 1000	1000 to 10000	Cn1cc(-c2ccc(-c3cnn4cccc(C5=CCN(C(N)=O)CC5)c34)cc2)cn1 [Compound P-0185, 4-[3-[4-(1-methylpyrazol-4-yl)phenyl]pyrazolo[1,5-a]pyridin-4-yl]-3,6-dihydro-2H-pyridine-1-carboxamide]
0.1 to 100	0.1 to 100	N#CC1CC=C(c2nccn3ncc(-c4ccc(-c5cnn(CC6(C#N)CC6)c5)cc4)c23)CC1 (centres unmarked) [Compound P-0096, 4-(3-(4-(1-((1-cyanocyclopropyl)methyl)-1H-pyrazol-4-yl)phenyl)pyrazolo[1,5-a]pyrazin-4-yl)cyclohex-3-ene-1-carbonitrile]
0.1 to 100	0.1 to 100	N#CC1CC=C(c2c(-c3ccc(-n4cccn4)cc3)cnc3[nH]ccc23)CC1 (centres unmarked) [Compound P-0203, 4-(5-(4-(1H-pyrazol-1-yl)phenyl)-1H-pyrrolo[2,3-b]pyridin-4-yl)cyclohex-3-ene-1-carbonitrile]
0.1 to 100	0.1 to 100	N#CC1CCC(c2nccn3ncc(-c4ccc(OCCOC5CCOCC5)cc4)c23)CC1 (centres unmarked) [Compound P-0058, (1s,4s)-4-(3-(4-(2-((tetrahydro-2H-pyran-4-yl)oxy)ethoxy)phenyl)pyrazolo[1,5-a]pyrazin-4-yl)cyclohexane-1-carbonitrile]
0.1 to 100	0.1 to 100	Cc1ccc2cc(-c3cnn4cccc(C5=CCC(C#N)CC5)c34)ccc2n1 (centres unmarked) [Compound P-0223, 4-(3-(2-methylquinolin-6-yl)pyrazolo[1,5-a]pyridin-4-yl)cyclohex-3-ene-1-carbonitrile]

Second part, the compound before the results:

Structure (SMILES)	IC50 [1] [nM]	IC50 [2] [nM]
CC(C)(C#Cc1cccn2ncc(-c3ccc(-c4cnn(CC5COC5)c4)cc3)c12)C(N)=O [Compound P-0470, 2,2-dimethyl-4-(3-(4-(1-(oxetan-3-ylmethyl)-1H-pyrazol-4-yl)phenyl)pyrazolo[1,5-a]pyridin-4-yl)but-3-ynamid]	0.1 to 100	0.1 to 100
CC(C)(C#Cc1cccn2ncc(-c3ccc(-c4cnn(CCF)c4)cc3)c12)C(N)=O [Compound P-0466, 4-(3-(4-(1-(2-fluoroethyl)-1H-pyrazol-4-yl)phenyl)pyrazolo[1,5-a]pyridin-4-yl)-2,2-dimethylbut-3-ynamide]	0.1 to 100	0.1 to 100
N#CC1CCN(c2c(-c3ccc(OCCCN4CCOCC4)cc3)cnc3[nH]ccc23)CC1 [Compound P-0327, 1-(5-(4-(3-morpholinopropoxy)phenyl)-1H-pyrrolo[2,3-b]pyridin-4-yl)piperidine-4-carbonitrile]	0.1 to 100	0.1 to 100
CC(C)(O)C#Cc1cccn2ncc(-c3ccc4cc(NS(C)(=O)=O)ccc4c3)c12 [Compound P-0216, N-(6-(4-(3-hydroxy-3-methylbut-1-yn-1-yl)pyrazolo[1,5-a]pyridin-3-yl)naphthalen-2-yl)methanesulfonamide]	0.1 to 100	100 to 1000
Cn1cc(-c2ccc(-c3cnn4cccc(C#C[C@@](C)(O)c5ccccc5)c34)cc2)cn1 [Compound P-0246, (S)-4-(3-(4-(1-methyl-1H-pyrazol-4-yl)phenyl)pyrazolo[1,5-a]pyridin-4-yl)-2-phenylbut-3-yn-2-ol]	0.1 to 100	100 to 1000
CC(C)(O)Cn1cc2cc(-c3cnc4[nH]ccc4c3C3=CCC(C#N)CC3)ccc2n1 (centres unmarked) [Compound P-0112, 4-(5-(2-(2-hydroxy-2-methylpropyl)-2H-indazol-5-yl)-1H-pyrrolo[2,3-b]pyridin-4-yl)cyclohex-3-ene-1-carbonitrile]	0.1 to 100	100 to 1000
Cc1ccc2cc(-c3cnn4cccc(N5CCC6(CCNC6=O)CC5)c34)ccc2n1 [Compound P-0168, 8-(3-(2-methylquinolin-6-yl)pyrazolo[1,5-a]pyridin-4-yl)-2,8-diazaspiro[4.5]decan-1-one]	0.1 to 100	0.1 to 100
CNC(=O)c1ccc2cc(-c3cnc4[nH]ccc4c3N3CCC(F)(C#N)CC3)ccc2c1 [Compound P-0269, 6-(4-(4-cyano-4-fluoropiperidin-1-yl)-1H-pyrrolo[2,3-b]pyridin-5-yl)-N-methyl-2-naphthamide]	100 to 1000	100 to 1000
N#CC1CC=C(c2c(-c3ccc(OCCOC4CCOCC4)cc3)cnc3[nH]ccc23)CC1 (centres unmarked) [Compound P-0172, 4-(5-(4-(2-((tetrahydro-2H-pyran-4-yl)oxy)ethoxy)phenyl)-1H-pyrrolo[2,3-b]pyridin-4-yl)cyclohex-3-ene-1-carbonitrile]	0.1 to 100	0.1 to 100
N#CC1CC=C(c2nccn3ncc(-c4ccc(-c5cnn(CCN6CCOCC6)c5)cc4)c23)CC1 (centres unmarked) [Compound P-0051, 4-(3-(4-(1-(2-morpholinoethyl)-1H-pyrazol-4-yl)phenyl)pyrazolo[1,5-a]pyrazin-4-yl)cyclohex-3-ene-1-carbonitrile]	0.1 to 100	0.1 to 100
CCCS(=O)(=O)Nc1ccc2cc(-c3cnn4cccc(C#CC(C)(C)C(N)=O)c34)ccc2c1 [Compound P-0065, 2,2-dimethyl-4-(3-(6-(propylsulfonamido)naphthalen-2-yl)pyrazolo[1,5-a]pyridin-4-yl)but-2-ynamide]	0.1 to 100	100 to 1000
CC(C)(O)C#Cc1cccn2ncc(-c3cnn(-c4cncc(C5CC5)c4)c3)c12 [Compound P-0289, 4-(3-(1-(5-cyclopropylpyridin-3-yl)-1H-pyrazol-4-yl)pyrazolo[1,5-a]pyridin-4-yl)-2-methylbut-3-yn-2-ol]	1000 to 10000	1000 to 10000
CNC(=O)C(C)(C)C#Cc1cccn2ncc(-c3ccc(-c4cnn(C)c4)cc3)c12 [Compound P-0296, N,2,2-trimethyl-4-(3-(4-(1-methyl-1H-pyrazol-4-yl)phenyl)pyrazolo[1,5-a]pyridin-4-yl)but-3-ynamide]	100 to 1000	1000 to 10000
Cc1ncc(-c2cnn3ccnc(C4=CCC(C#N)CC4)c23)s1 (centres unmarked) [Compound P-0077, 4-(3-(2-methylthiazol-5-yl)pyrazolo[1,5-a]pyrazin-4-yl)cyclohex-3-ene-1-carbonitrile]	100 to 1000	100 to 1000

— patent publication US10703757B2, “Compounds and methods for CDK8 modulation and indications therefor” (Plexxikon Inc., priority 2016, dated 2020)
